# Values quoted from earlier work in patent US6479236B2, “Genotyping the human UDP-glucuronosyltransferase 1 (UGT1) gene” (DNA Sciences Laboratories, Inc., priority 1998, dated 2002).
# Experiments:
# [1] = target: T1, UGT1*7 (Homo sapiens, UniProt O60656); details: substrate of UGT1*7
# T1 sequence (O60656 26-530): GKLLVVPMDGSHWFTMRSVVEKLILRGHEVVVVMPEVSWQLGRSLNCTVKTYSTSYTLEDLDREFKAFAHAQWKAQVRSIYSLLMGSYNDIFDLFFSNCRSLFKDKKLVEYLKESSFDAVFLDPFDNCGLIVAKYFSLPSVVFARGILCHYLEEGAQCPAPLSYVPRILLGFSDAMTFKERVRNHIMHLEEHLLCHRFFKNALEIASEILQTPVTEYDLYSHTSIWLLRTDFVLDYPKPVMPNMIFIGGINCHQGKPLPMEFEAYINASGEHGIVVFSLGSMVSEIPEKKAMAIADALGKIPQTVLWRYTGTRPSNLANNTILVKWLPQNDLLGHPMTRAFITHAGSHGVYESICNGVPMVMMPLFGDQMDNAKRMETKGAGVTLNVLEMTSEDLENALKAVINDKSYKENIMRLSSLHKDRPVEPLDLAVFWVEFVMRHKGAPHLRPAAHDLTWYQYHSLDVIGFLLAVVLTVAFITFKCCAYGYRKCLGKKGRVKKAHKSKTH
# [2] = target: UGT1*6 (Homo sapiens, UniProt P19224); details: substrate of UGT1*6
# [3] = target: T2, UGT1*1 (Homo sapiens, UniProt P22309); details: for Km: substrate of UGT1*1; for binding to UGT1*1 compared with bilirubin: relative to the endogenous substrate bilirubin
# T2 sequence (P22309 26-533): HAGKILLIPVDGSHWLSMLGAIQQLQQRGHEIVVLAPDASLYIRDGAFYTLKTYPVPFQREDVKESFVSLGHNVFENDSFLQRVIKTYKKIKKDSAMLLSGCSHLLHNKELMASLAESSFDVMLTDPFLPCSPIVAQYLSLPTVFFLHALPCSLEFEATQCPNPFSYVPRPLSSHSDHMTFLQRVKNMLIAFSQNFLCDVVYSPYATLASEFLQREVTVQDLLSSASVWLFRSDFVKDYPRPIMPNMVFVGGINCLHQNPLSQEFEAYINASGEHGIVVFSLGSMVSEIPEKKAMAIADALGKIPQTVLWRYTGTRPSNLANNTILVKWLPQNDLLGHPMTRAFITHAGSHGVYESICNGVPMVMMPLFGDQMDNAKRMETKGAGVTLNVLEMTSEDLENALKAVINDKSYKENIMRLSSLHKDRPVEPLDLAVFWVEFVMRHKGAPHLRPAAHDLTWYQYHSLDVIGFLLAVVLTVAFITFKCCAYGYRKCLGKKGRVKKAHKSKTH
Compound,Km [2] [mM],Km [3] [µM],binding to UGT1*1 compared with bilirubin [3],Km [1] [µM]
CC(=O)Nc1ccc(O)cc1 [Acetaminophen],2,–,–,50000
C=CC1=C(C)/C(=C/c2[nH]c(Cc3[nH]c(/C=C4\NC(=O)C(C)=C4C=C)c(C)c3CCC(=O)O)c(CCC(=O)O)c2C)NC1=O [Bilirubin],–,24,–,–
CC(C)c1cccc(C(C)C)c1O [Propofol],–,–,–,172
O=C(O)[C@H]1O[C@H](OP(=O)(O)OP(=O)(O)OC[C@H]2O[C@@H](n3ccc(=O)[nH]c3=O)[C@H](O)[C@@H]2O)[C@H](O)[C@@H](O)[C@@H]1O [UDPGA],–,410,–,410

# Second part, led by results:
Km [2] [mM],Km [3] [µM],binding to UGT1*1 compared with bilirubin [3],Compound,Km [1] [µM]
–,162,more readily binds,CCCCCCCCOC(=O)c1cc(O)c(O)c(O)c1 [Octyl gallate],158
–,–,more readily binds,Cc1cc(O)c2c(c1)C(=O)c1cc(O)cc(O)c1C2=O [emodin],–
